# Laboratory results published in the kinase profiling compilation of Christmann-Franck et al. (2016).
# Legend:
# Assay in all cases: radiometric filter-binding kinase assay
# [1] = target: SIK3 (human) (UniProt Q9Y2K2)
# [2] = target: STK16 (human) (UniProt O75716)
# [3] = target: EIF2AK3 (human) (UniProt Q9NZJ5)
# [4] = target: ABL1 (human) (UniProt P00519)
# [5] = target: ZAP70 (human) (UniProt P43403)
# [6] = target: STK24 (human) (UniProt Q9Y6E0)
# [7] = target: ULK2 (human) (UniProt Q8IYT8)
# [8] = target: AURKB (human) (UniProt Q96GD4)
# [9] = target: SIK2 (human) (UniProt Q9H0K1)
# Chain of SIK2 (human) (Q9H0K1 whole entry, looked up): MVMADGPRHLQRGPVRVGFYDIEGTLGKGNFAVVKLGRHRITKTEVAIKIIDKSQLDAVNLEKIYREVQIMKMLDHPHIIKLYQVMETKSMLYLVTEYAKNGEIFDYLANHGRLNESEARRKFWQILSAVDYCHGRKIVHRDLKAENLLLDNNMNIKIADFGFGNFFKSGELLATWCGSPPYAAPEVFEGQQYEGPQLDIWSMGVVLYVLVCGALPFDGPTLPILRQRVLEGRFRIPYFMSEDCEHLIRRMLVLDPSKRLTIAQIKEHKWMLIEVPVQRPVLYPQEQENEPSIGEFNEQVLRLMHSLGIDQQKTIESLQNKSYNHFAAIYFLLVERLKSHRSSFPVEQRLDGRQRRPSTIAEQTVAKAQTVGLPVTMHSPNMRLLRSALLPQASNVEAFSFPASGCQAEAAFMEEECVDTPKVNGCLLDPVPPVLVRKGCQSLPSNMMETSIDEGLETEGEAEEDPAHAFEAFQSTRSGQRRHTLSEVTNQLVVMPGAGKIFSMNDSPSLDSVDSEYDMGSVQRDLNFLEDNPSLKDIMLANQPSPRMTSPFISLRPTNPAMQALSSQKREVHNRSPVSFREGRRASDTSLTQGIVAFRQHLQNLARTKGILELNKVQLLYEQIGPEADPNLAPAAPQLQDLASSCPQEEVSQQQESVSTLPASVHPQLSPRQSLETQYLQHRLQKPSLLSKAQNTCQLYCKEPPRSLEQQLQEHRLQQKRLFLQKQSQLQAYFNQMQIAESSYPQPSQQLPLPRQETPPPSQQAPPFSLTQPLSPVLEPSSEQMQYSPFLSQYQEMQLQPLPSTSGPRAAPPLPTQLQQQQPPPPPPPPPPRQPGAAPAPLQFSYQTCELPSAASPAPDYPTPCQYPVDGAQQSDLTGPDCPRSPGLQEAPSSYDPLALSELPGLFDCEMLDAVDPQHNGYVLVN
# [10] = target: TTBK1 (human) (UniProt Q5TCY1)
# [11] = target: PHKG1 (human) (UniProt Q16816)
# [12] = target: TSSK1B (human) (UniProt Q9BXA7)
# [13] = target: ULK1 (human) (UniProt O75385)
# [14] = target: STK33 (human) (UniProt Q9BYT3)
# Chain of STK33 (human) (Q9BYT3 whole entry, looked up): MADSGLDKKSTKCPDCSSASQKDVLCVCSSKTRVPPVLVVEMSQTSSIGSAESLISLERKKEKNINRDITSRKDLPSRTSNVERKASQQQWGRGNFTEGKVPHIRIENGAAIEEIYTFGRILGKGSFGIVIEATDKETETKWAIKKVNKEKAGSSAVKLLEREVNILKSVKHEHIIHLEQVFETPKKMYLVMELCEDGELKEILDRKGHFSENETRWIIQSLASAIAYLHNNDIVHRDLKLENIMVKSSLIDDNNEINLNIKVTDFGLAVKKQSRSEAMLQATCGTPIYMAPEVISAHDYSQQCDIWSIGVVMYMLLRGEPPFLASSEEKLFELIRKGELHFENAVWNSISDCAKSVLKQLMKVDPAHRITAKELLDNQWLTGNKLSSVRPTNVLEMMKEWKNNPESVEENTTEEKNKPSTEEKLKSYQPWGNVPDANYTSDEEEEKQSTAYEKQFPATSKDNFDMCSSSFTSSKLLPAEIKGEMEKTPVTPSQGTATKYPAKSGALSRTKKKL
# [15] = target: DDR2 (human) (UniProt Q16832)
# [16] = target: PRKCG (human) (UniProt P05129)
# [17] = target: PTK6 (human) (UniProt Q13882)
# Chain of PTK6 (human) (Q13882 whole entry, looked up): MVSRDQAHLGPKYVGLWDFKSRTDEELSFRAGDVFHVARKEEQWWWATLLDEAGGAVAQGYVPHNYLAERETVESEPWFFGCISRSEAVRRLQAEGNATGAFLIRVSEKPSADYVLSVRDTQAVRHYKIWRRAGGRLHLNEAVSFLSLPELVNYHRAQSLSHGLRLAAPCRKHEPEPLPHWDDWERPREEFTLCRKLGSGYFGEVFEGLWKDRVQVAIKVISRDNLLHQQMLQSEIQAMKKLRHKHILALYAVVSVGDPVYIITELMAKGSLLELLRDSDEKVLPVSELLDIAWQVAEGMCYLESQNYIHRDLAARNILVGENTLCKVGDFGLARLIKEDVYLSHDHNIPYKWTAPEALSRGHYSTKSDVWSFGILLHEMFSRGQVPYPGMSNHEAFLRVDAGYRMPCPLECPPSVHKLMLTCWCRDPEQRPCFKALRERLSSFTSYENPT
# [18] = target: CDK9 CCNT1 (human) (UniProt P50750+O60563)
# Chain of CDK9 CCNT1 (human) (O60563 whole entry, looked up): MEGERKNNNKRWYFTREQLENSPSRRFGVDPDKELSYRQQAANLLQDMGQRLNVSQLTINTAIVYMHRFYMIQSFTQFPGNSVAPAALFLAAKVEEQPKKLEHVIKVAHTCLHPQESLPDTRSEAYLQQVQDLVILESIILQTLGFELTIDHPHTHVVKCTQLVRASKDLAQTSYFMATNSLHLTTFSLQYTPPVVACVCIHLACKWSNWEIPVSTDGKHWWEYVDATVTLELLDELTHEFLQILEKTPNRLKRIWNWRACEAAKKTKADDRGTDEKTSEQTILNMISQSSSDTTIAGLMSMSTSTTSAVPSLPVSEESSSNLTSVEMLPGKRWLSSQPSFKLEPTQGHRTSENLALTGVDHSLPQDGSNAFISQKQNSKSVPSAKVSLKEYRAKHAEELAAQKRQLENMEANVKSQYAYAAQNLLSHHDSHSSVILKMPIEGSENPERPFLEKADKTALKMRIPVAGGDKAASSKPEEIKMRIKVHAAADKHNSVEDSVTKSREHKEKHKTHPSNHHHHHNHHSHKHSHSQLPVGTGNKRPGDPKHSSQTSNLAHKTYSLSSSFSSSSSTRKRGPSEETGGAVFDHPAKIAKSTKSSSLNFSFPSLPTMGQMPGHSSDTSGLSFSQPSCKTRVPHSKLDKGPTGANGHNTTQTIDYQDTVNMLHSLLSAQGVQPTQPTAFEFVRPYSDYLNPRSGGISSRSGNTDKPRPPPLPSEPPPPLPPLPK
# Chain of CDK9 CCNT1 (human) (P50750 whole entry, looked up): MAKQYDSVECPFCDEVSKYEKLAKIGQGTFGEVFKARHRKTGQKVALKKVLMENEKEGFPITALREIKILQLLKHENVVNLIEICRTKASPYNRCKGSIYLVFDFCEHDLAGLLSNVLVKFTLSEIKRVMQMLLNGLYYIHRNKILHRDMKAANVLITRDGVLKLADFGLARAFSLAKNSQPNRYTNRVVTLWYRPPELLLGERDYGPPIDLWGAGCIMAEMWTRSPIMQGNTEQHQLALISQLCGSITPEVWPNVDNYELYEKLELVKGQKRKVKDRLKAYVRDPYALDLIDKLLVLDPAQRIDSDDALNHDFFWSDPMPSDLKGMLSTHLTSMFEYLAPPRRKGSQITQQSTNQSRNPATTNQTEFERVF
# [19] = target: TLK1 (human) (UniProt Q9UKI8)
# [20] = target: TESK1 (human) (UniProt Q15569)
# [21] = target: WNK1 (human) (UniProt Q9H4A3)
# [22] = target: CSNK1G2 (human) (UniProt P78368)
# [23] = test system: OXSR1 (human), O95747 [T185E]
# [24] = target: TEK (human) (UniProt Q02763)
# [25] = target: IRAK1 (human) (UniProt P51617)
# [26] = target: TTBK2 (human) (UniProt Q6IQ55)
# [27] = target: PDGFRA (human) (UniProt P16234)
# [28] = target: MAP4K3 (human) (UniProt Q8IVH8)
# [29] = target: PRKAA1 PRKAB2 PRKAG1 (human) (UniProt O43741+Q13131+P54619)
# [30] = target: MAP4K5 (human) (UniProt Q9Y4K4)
# Chain of SIK3 (human) (Q9Y2K2 whole entry, looked up): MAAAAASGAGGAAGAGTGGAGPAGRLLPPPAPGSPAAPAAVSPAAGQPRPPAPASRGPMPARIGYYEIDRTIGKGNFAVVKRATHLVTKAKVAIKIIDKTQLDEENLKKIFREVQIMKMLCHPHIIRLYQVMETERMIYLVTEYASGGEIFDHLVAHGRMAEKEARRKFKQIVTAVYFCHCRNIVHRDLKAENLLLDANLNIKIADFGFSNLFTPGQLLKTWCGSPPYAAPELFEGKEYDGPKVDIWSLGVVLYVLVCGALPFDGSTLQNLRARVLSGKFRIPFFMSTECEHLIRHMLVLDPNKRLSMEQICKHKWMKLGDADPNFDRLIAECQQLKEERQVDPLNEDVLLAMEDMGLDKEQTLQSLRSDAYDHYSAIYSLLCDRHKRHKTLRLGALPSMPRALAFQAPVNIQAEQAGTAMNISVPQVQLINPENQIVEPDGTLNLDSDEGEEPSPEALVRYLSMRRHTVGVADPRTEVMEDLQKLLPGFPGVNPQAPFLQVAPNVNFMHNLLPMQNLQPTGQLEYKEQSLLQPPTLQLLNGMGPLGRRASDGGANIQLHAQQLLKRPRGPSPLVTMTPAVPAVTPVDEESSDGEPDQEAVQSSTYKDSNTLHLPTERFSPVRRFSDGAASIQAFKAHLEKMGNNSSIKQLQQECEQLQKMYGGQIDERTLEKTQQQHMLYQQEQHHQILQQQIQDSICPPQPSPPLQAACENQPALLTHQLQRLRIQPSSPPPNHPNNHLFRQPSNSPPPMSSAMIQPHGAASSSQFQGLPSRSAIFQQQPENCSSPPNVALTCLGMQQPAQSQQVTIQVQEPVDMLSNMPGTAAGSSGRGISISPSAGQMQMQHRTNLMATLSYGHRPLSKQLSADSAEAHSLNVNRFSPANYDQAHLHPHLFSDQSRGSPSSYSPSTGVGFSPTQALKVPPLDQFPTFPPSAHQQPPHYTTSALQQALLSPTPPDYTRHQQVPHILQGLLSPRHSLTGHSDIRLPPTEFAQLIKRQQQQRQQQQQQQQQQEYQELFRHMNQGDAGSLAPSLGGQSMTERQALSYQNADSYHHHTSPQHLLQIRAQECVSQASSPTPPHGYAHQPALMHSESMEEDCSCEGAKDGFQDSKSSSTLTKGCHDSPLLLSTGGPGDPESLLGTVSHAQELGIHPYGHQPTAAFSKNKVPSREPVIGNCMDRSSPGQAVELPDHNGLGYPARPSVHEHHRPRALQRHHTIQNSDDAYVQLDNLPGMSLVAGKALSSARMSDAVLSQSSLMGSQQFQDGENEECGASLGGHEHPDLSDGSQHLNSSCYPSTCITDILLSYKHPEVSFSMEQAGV
smiles,measurement,setting,value
CN(C)C/C=C/C(=O)Nc1cccc(C(=O)Nc2ccc(Nc3nccc(-c4cccnc4)n3)cc2)c1,residual activity,[1]; compound 0.1 µM,81%
same,residual activity,[1]; compound 1.0 µM,64%
same,residual activity,[2]; compound 0.1 µM,108%
same,residual activity,[2]; compound 1.0 µM,103%
same,residual activity,[3]; compound 0.1 µM,90%
same,residual activity,[3]; compound 1.0 µM,99%
same,residual activity,[4]; compound 0.1 µM,77%
same,residual activity,[4]; compound 1.0 µM,85%
same,residual activity,[5]; compound 0.1 µM,82%
same,residual activity,[5]; compound 1.0 µM,123%
same,residual activity,[6]; compound 0.1 µM,94%
same,residual activity,[6]; compound 1.0 µM,93%
same,residual activity,[7]; compound 0.1 µM,50%
same,residual activity,[7]; compound 1.0 µM,69%
same,residual activity,[8]; compound 0.1 µM,74%
same,residual activity,[8]; compound 1.0 µM,73%
same,residual activity,[9]; compound 0.1 µM,78%
same,residual activity,[9]; compound 1.0 µM,67%
same,residual activity,[10]; compound 0.1 µM,88%
same,residual activity,[10]; compound 1.0 µM,79%
same,residual activity,[11]; compound 0.1 µM,94%
same,residual activity,[11]; compound 1.0 µM,83%
same,residual activity,[12]; compound 0.1 µM,88%
same,residual activity,[12]; compound 1.0 µM,101%
same,residual activity,[13]; compound 0.1 µM,37%
same,residual activity,[13]; compound 1.0 µM,63%
same,residual activity,[14]; compound 0.1 µM,92%
same,residual activity,[14]; compound 1.0 µM,91%
same,residual activity,[15]; compound 0.1 µM,89%
same,residual activity,[15]; compound 1.0 µM,108%
same,residual activity,[16]; compound 0.1 µM,96%
same,residual activity,[16]; compound 1.0 µM,101%
same,residual activity,[17]; compound 0.1 µM,81%
same,residual activity,[17]; compound 1.0 µM,81%
same,residual activity,[18]; compound 0.1 µM,22%
same,residual activity,[18]; compound 1.0 µM,42%
same,residual activity,[19]; compound 0.1 µM,99%
same,residual activity,[19]; compound 1.0 µM,98%
same,residual activity,[20]; compound 0.1 µM,90%
same,residual activity,[20]; compound 1.0 µM,98%
same,residual activity,[21]; compound 0.1 µM,103%
same,residual activity,[21]; compound 1.0 µM,117%
same,residual activity,[22]; compound 0.1 µM,88%
same,residual activity,[22]; compound 1.0 µM,88%
same,residual activity,[23]; compound 0.1 µM,99%
same,residual activity,[23]; compound 1.0 µM,105%
same,residual activity,[24]; compound 0.1 µM,94%
same,residual activity,[24]; compound 1.0 µM,84%
same,residual activity,[25]; compound 0.1 µM,26%
same,residual activity,[25]; compound 1.0 µM,5%
Cc1ccc(-c2ccc3c(ccc4sc5c(c43)NC[C@@H](C)NC5=O)n2)cn1,residual activity,[1]; compound 0.1 µM,98%
same,residual activity,[1]; compound 1.0 µM,99%
same,residual activity,[1]; compound 10.0 µM,73%
same,residual activity,[2]; compound 0.1 µM,117%
same,residual activity,[2]; compound 1.0 µM,118%
same,residual activity,[2]; compound 10.0 µM,105%
same,residual activity,[26]; compound 0.1 µM,122%
same,residual activity,[26]; compound 1.0 µM,122%
same,residual activity,[26]; compound 10.0 µM,103%
same,residual activity,[3]; compound 0.1 µM,114%
same,residual activity,[3]; compound 1.0 µM,101%
same,residual activity,[3]; compound 10.0 µM,73%
same,residual activity,[4]; compound 0.1 µM,120%
same,residual activity,[4]; compound 1.0 µM,113%
same,residual activity,[4]; compound 10.0 µM,76%
same,residual activity,[5]; compound 0.1 µM,93%
same,residual activity,[5]; compound 1.0 µM,100%
same,residual activity,[6]; compound 1.0 µM,109%
same,residual activity,[7]; compound 0.1 µM,109%
same,residual activity,[7]; compound 10.0 µM,54%
same,residual activity,[8]; compound 0.1 µM,109%
same,residual activity,[8]; compound 1.0 µM,99%
same,residual activity,[8]; compound 10.0 µM,64%
same,residual activity,[9]; compound 0.1 µM,99%
same,residual activity,[9]; compound 1.0 µM,86%
same,residual activity,[9]; compound 10.0 µM,77%
same,residual activity,[10]; compound 0.1 µM,103%
same,residual activity,[10]; compound 1.0 µM,104%
same,residual activity,[10]; compound 10.0 µM,96%
same,residual activity,[11]; compound 0.1 µM,110%
same,residual activity,[11]; compound 1.0 µM,91%
same,residual activity,[11]; compound 10.0 µM,86%
same,residual activity,[12]; compound 0.1 µM,97%
same,residual activity,[12]; compound 1.0 µM,85%
same,residual activity,[12]; compound 10.0 µM,89%
same,residual activity,[13]; compound 0.1 µM,115%
same,residual activity,[13]; compound 1.0 µM,89%
same,residual activity,[13]; compound 10.0 µM,75%
same,residual activity,[14]; compound 0.1 µM,105%
same,residual activity,[14]; compound 1.0 µM,83%
same,residual activity,[14]; compound 10.0 µM,38%
same,residual activity,[15]; compound 0.1 µM,105%
same,residual activity,[15]; compound 1.0 µM,101%
same,residual activity,[15]; compound 10.0 µM,91%
same,residual activity,[16]; compound 0.1 µM,118%
same,residual activity,[16]; compound 1.0 µM,110%
same,residual activity,[16]; compound 10.0 µM,101%
same,residual activity,[17]; compound 0.1 µM,121%
same,residual activity,[17]; compound 1.0 µM,94%
same,residual activity,[17]; compound 10.0 µM,92%
same,residual activity,[27]; compound 0.1 µM,104%
same,residual activity,[27]; compound 1.0 µM,108%
same,residual activity,[18]; compound 0.1 µM,109%
same,residual activity,[18]; compound 1.0 µM,96%
same,residual activity,[18]; compound 10.0 µM,51%
same,residual activity,[19]; compound 0.1 µM,113%
same,residual activity,[19]; compound 1.0 µM,107%
same,residual activity,[19]; compound 10.0 µM,100%
same,residual activity,[20]; compound 0.1 µM,112%
same,residual activity,[20]; compound 1.0 µM,111%
same,residual activity,[20]; compound 10.0 µM,101%
same,residual activity,[21]; compound 0.1 µM,113%
same,residual activity,[21]; compound 1.0 µM,108%
same,residual activity,[21]; compound 10.0 µM,119%
same,residual activity,[28]; compound 0.1 µM,98%
same,residual activity,[28]; compound 1.0 µM,72%
same,residual activity,[28]; compound 10.0 µM,41%
same,residual activity,[29]; compound 0.1 µM,68%
same,residual activity,[29]; compound 1.0 µM,21%
same,residual activity,[29]; compound 10.0 µM,6%
same,residual activity,[22]; compound 0.1 µM,123%
same,residual activity,[22]; compound 1.0 µM,112%
same,residual activity,[22]; compound 10.0 µM,102%
same,residual activity,[23]; compound 0.1 µM,113%
same,residual activity,[23]; compound 1.0 µM,112%
same,residual activity,[23]; compound 10.0 µM,118%
same,residual activity,[24]; compound 0.1 µM,105%
same,residual activity,[24]; compound 1.0 µM,86%
same,residual activity,[24]; compound 10.0 µM,88%
same,residual activity,[30]; compound 0.1 µM,111%
same,residual activity,[30]; compound 1.0 µM,108%
same,residual activity,[30]; compound 10.0 µM,61%
same,residual activity,[25]; compound 0.1 µM,104%
same,residual activity,[25]; compound 1.0 µM,77%
same,residual activity,[25]; compound 10.0 µM,27%
